Measured values: patent US6620810B2, “4-thioxo-4,7-dihydro-thieno[2,3-b]pyridine-5-carboxamides as antiviral agents” (Pharmacia & Upjohn Company, priority 2001, dated 2003)

Legend:
Format in all cases: biochemical
VZV polymerase = VZV polymerase (Varicella-zoster virus, UniProt P09252); test: VZV polymerase assay (Table 1)
HSV polymerase = HSV polymerase (Human herpesvirus 1, UniProt P04293); test: HSV polymerase assay (Table 1)
HCMV polymerase = molecular target: T1, HCMV polymerase (Human cytomegalovirus, UniProt P08546); test: HCMV polymerase scintillation proximity assay (Test A, modified version); details: modified SPA assay: compounds diluted in 100% DMSO, 4.5 mM DTT in polymerase buffer
T1 construct: made in house; host or cells: recombinant baculovirus-infected SF-9 cells
T1 sequence (P08546 whole entry): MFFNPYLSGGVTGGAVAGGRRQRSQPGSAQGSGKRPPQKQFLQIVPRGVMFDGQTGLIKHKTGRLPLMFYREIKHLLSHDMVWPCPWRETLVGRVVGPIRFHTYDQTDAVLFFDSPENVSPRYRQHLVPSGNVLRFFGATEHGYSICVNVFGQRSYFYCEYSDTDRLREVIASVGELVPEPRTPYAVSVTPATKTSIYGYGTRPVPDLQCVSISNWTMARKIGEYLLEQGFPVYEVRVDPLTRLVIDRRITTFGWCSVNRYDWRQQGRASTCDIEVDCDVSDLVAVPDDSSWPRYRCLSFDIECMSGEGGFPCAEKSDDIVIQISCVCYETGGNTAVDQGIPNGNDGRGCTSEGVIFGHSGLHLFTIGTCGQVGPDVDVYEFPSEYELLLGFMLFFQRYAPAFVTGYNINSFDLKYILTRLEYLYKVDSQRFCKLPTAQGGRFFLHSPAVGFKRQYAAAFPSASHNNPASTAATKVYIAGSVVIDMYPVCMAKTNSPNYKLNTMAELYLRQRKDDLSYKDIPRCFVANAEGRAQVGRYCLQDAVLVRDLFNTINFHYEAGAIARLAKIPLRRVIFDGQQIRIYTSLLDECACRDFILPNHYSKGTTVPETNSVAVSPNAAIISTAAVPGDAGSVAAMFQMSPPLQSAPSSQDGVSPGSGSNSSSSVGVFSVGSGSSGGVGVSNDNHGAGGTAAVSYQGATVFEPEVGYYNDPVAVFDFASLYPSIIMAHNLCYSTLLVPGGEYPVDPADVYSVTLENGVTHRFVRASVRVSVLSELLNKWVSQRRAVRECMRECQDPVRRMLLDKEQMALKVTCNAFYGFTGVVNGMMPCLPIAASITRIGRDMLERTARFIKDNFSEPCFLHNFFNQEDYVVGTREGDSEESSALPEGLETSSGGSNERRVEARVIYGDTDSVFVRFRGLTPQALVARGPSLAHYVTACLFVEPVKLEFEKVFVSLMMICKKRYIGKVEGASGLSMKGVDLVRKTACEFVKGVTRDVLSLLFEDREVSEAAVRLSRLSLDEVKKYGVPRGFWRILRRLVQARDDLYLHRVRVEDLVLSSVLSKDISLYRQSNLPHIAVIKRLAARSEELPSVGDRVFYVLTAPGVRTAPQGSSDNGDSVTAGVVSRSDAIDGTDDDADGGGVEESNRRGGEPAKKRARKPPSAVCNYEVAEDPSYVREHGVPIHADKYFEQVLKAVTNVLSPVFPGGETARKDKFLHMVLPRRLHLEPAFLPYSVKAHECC
Description: The HCMV polymerase assay is performed using a scintillation proximity assay (SPA) as described in several references, such as N. D. Cook, et al., Pharmaceutical Manufacturing International, pages 49-53 (1992); K. Takeuchi, Laboratory Practice, September issue (1992); U.S. Pat. No. 4,568,649 (1986); which are incorporated by reference herein. Reactions are performed in 96-well plates. The assay is conducted in 100 μl volume with 5.4 mM HEPES (pH 7.5), 11.7 mM KCl, 4.5 mM MgCl2, 0.36 mg/ml BSA, and 90 nM ^3H-dTTP. Assays are run with and without CHAPS, (3-[(3-cholamidopropyl)-dimethylammonio]-1-propane-sulfonate) at a final concentration of 2 mM. HCMV polymerase is diluted in enzyme dilution buffer containing 50% glycerol, 250 mM NaCl, 10 mM HEPES (pH 7.5), 100 μg/ml BSA, and 0.01% sodium azide. […] Plates are incubated 10 min. at 37° C., then equilibrated to room temperature, and counted on a Packard Topcount. Linear regressions are performed and IC50's are calculated using computer software.
A modified version of the above HCMV polymerase assay is performed as described above, but with the following changes: Compounds are diluted in 100% DMSO until final dilution into assay buffer. […] In Table 1, the term “nd” refers to activity data not determined.

VZV polymerase, sequence (P09252 whole entry): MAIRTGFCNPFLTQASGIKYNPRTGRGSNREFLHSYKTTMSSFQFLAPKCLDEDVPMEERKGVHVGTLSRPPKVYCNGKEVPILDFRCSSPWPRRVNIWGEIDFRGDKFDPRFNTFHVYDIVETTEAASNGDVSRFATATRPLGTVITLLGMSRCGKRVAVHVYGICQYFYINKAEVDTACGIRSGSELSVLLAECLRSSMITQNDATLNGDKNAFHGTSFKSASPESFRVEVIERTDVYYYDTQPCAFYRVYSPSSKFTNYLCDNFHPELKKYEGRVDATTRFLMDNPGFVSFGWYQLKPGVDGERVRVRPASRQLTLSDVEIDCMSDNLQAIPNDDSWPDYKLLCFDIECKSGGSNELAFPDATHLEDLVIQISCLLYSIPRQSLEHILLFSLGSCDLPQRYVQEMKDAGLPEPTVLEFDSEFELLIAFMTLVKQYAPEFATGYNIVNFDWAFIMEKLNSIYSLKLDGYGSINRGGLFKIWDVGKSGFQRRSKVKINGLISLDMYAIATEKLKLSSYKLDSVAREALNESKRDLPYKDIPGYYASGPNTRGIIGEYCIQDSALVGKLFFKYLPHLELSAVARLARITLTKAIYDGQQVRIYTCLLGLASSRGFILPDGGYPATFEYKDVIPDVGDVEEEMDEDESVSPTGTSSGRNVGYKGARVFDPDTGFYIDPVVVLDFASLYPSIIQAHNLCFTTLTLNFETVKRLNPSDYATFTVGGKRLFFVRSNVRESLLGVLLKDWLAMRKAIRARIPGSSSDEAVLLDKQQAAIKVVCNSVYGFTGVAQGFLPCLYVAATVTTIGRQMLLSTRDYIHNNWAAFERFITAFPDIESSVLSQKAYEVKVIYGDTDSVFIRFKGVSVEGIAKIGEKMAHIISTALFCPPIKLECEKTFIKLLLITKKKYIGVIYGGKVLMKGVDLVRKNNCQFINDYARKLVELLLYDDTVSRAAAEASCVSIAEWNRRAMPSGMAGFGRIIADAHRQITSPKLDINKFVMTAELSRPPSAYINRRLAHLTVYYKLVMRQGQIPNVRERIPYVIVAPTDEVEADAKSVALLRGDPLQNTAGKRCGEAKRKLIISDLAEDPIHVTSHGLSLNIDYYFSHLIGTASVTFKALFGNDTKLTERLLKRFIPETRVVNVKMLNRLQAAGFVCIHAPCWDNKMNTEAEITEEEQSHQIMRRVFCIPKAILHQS
HSV polymerase, sequence (P04293 whole entry): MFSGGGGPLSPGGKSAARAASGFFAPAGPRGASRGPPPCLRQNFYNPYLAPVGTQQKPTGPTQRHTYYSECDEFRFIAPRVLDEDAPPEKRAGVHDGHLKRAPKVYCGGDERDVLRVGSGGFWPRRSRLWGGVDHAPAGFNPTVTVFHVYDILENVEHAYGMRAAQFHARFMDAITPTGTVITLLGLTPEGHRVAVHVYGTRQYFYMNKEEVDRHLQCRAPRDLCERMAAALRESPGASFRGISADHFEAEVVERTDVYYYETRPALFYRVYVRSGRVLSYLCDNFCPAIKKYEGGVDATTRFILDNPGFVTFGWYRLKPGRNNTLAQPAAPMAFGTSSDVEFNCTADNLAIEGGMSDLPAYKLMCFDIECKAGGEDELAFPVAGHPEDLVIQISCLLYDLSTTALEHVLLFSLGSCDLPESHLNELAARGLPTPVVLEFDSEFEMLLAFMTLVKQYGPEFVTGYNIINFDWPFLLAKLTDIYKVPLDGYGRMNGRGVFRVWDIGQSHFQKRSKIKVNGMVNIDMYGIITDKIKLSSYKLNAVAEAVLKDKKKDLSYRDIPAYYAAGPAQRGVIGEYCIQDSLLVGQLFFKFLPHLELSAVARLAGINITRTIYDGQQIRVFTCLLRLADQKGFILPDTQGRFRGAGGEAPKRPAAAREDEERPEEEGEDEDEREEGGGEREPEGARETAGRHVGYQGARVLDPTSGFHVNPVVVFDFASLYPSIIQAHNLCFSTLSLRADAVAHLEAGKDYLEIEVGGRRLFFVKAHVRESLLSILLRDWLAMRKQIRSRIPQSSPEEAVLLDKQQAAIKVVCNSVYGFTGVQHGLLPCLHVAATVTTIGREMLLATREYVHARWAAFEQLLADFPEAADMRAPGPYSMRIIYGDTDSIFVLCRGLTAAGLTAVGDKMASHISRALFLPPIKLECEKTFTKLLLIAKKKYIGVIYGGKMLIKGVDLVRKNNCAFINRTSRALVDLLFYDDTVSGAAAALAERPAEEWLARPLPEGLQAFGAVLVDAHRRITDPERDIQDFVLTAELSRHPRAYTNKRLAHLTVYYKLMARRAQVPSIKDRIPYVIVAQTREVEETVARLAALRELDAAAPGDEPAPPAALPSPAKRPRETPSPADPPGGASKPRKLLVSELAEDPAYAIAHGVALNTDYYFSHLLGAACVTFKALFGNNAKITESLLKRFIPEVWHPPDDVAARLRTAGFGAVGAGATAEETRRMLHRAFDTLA

IC50 (VZV polymerase): 0.08 µM | IC50 (HSV polymerase): 0.16 µM | IC50 (HCMV polymerase): 0.63 µM
Structure (SMILES): Cn1cc(C(=O)NCc2ccc(Cl)cc2)c(=S)c2cc(CN3CCOCC3)sc21 [Example 1, N-(4-chlorobenzyl)-7-methyl-2-(4-morpholinylmethyl)-4-thioxo-4,7-dihydrothieno[2,3-b]pyridine-5-carboxamide]
